Assay results as given in US4029547A (priority 1974, dated 1977).
Several values for one entry are separate records, joined by “and”; a condition that tells them apart may be missing. Equal values may be shown once. Entries after “also recorded” stand apart in the source; their conditions may differ. Read-outs that look alike come from different tables or passages of the source.

How the values were obtained:
aminopeptidase B = target: T1, aminopeptidase B (Rattus norvegicus, UniProt O09175); assay: Inhibition of aminopeptidase B (arginine β-naphthylamide hydrolysis); format: biochemical; conditions: for 50% inhibition dose (ID50) of aminopeptidase B: amount added to the test solution
T1 construct: aminopeptidase B of rat liver; from tissue; host or cells: rat liver, enzyme prepared by Sephadex 100 chromatography
T1 sequence (O09175 1-650): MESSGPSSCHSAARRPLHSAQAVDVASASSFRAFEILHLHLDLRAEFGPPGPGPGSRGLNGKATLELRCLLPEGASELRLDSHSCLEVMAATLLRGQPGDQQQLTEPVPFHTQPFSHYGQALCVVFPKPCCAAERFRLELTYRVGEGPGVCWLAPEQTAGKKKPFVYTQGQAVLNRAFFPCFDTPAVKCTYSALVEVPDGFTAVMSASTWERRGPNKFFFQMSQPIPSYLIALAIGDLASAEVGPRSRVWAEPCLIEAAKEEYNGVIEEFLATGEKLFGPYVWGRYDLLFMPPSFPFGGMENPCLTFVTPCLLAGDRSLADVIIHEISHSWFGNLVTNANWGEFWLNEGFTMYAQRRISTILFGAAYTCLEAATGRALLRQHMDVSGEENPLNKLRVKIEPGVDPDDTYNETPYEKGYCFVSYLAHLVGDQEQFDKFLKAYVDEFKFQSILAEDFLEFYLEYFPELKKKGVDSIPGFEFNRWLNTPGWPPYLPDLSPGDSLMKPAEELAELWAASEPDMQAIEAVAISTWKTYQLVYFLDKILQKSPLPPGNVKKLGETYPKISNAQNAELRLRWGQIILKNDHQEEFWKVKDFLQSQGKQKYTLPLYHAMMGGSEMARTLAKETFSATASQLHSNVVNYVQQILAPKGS
Description: To the mixture of 0.3 ml of 1 mM arginine β-naphthylamide and 1.0 ml of 0.1 M Tris hydrochloride buffer (pH 7.0), 0.7 ml of distilled water with or without a test material is added and warmed at 37° C.) for 3 minutes. The reaction is started by addition of 0.2 ml of aminopeptidase B solution which is prepared by Sephadex 100 chromatography as described by Hopusu et al. After 30 minutes at 37° C., 0.6 ml of 1.0 M acetate buffer (pH 4.2) containing diazonium salt of o-aminoazotoluene at 1.0 mg/ml and Tween 20 at 10% is added. […] The inhibition percent is calculated as follows: (b-a)/b × 100.

elastase = assay: Inhibition of elastase; format: biochemical
pepsin = assay: Inhibition of pepsin; format: biochemical
Solubility in solvents = format: physicochemical
leucine aminopeptidase = target: T2, leucine aminopeptidase (Sus scrofa, UniProt P28839); assay: Inhibition of leucine aminopeptidase (L-leucine naphthylamide hydrolysis); format: biochemical, swine; conditions: substrate L-leucine-β-naphthylamide
T2 construct: leucine aminopeptidase of swine kidney; from tissue; host or cells: swine kidney
T2 sequence (P28839 33-519 limits assumed): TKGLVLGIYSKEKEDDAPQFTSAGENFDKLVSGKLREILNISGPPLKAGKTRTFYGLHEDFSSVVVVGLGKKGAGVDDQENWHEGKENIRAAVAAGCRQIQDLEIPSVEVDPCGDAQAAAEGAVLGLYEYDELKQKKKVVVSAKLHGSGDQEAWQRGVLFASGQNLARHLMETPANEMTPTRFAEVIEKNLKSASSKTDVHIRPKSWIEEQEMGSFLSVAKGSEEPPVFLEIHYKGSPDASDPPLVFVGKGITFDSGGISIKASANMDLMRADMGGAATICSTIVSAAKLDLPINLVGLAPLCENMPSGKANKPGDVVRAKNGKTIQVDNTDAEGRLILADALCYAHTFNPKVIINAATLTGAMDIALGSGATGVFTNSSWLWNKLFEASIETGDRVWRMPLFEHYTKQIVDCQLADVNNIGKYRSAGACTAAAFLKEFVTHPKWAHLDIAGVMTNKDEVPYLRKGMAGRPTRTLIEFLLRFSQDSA
Description: The activity was determined by the following method: to 0.25 ml. of 2 mM L-leucine-3-naphthylamide (Tokyo Chem. Indust. Co., Ltd., Japan) was added 0.5 ml. of 0.1 M Tris-HCl buffer at pH 7.0 and 0.2 ml. of distilled water with or without an inhibitor in a series of test tubes in a 37° C. bath. After 3 minutes, 0.05 ml. of enzyme solution was added and mixed well.

chymotrypsin = assay: Inhibition of chymotrypsin; format: biochemical
papain = target: T3, papain (Carica papaya, UniProt P00784); assay: Inhibition of papain; format: biochemical
T3 sequence (P00784 134-345): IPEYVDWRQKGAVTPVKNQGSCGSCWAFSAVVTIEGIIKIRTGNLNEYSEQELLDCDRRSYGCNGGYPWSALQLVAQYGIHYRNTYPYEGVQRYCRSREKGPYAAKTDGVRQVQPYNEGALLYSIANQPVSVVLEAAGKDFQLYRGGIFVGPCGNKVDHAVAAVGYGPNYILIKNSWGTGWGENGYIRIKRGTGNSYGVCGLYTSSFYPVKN

trypsin = assay: Inhibition of trypsin; format: biochemical
[1] = tested on: aminopeptidase A of human serum; assay: Inhibition of aminopeptidase A; format: biochemical
bacteria = assay: Antibacterial activity; format: cell-based
bleomycin hydrolase = assay: Inhibition of bleomycin hydrolase; format: biochemical
thermolysin = target: T4, thermolysin (Bacillus thermoproteolyticus, UniProt P00800); assay: Inhibition of thermolysin; format: biochemical
T4 sequence (P00800 233-548): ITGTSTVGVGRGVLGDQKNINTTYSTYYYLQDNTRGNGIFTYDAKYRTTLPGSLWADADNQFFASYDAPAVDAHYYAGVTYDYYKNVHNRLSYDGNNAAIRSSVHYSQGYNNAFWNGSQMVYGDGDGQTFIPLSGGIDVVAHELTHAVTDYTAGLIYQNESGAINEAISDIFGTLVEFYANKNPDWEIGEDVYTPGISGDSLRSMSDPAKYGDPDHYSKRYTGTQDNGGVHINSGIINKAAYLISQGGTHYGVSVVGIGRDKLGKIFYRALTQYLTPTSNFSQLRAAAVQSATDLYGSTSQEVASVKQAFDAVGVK

[2] = tested on: Yoshida rat sarcoma cells; assay: Increase of bleomycin activity in tissue culture; format: cell-based; conditions: bestatin 6.25 μg/ml in tissue culture medium
[3] = tested on: mammalian cells including cancer cells; assay: Inhibition of growth of mammalian cells; format: cell-based
[4] = tested on: methylcholanthrene-induced squamous cell carcinoma; assay: Increase of bleomycin effect on carcinoma in vivo; parameters: species or system rat; conditions: simultaneous subcutaneous daily injection, 5 mg/kg bestatin with 5 mg/kg bleomycin, rats
fungi = assay: Antifungal activity; format: cell-based; conditions: at 100 μg/ml
[5] = Toxicity after intraperitoneal injection; format: in vivo, mouse
Stability to pH and heat = format: physicochemical; conditions: culture filtrate containing bestatin, pH 2.0 or pH 9.0, 60° C., 30 minutes

With COC(=O)[C@H](CC(C)C)NC(=O)[C@@H](O)[C@@H](Cc1ccccc1)NC(C)=O [N-acetyl-bestatin methyl ester] the “50% inhibition dose (ID50) of aminopeptidase B” value (from here on “50% inhibition dose (ID50)”) (aminopeptidase B) was 8 µg.
With CC(C)C[C@H](NC(=O)[C@@H](O)[C@H](N)Cc1ccccc1)C(=O)O [bestatin, [(2S,3R)-3-amino-2-hydroxy-4-phenylbutanoyl]-L-leucine] the inhibition of elastase (elastase) was “did not show any inhibition”, the inhibition of pepsin (pepsin) was “did not show any inhibition” and the solubility (Solubility in solvents; ethyl acetate, butyl acetate, ethyl ether, hexane, petroleum ether, benzene, chloroform) was “practically insoluble; also recorded: hardly soluble”. For the same compound, the solubility (Solubility in solvents; propanol and butanol) was “slightly soluble; also recorded: less soluble”, the solubility (Solubility in solvents; water, acetic acid, pyridine, dimethylsulfoxide, methanol, ethanol) was “soluble” and the mode of inhibition (leucine aminopeptidase) was “competitive with the substrate”. The inhibition of chymotrypsin (chymotrypsin) was “did not show any inhibition”, the IC50 (aminopeptidase B; aminopeptidase B of rat liver) was 178 nM and the “50% inhibition dose (ID50)” value (aminopeptidase B) was 0.1 µg and 0.10 µg. The mode of inhibition (aminopeptidase B; substrate L-arginine-β-naphthylamide) was “competitive with the substrate”, the inhibition of papain (papain) was “did not show any inhibition” and the inhibition of trypsin (trypsin) was “did not show any inhibition”. For the same compound, the “inhibition of aminopeptidase A” value [1] was “did not show any inhibition”, the “inhibition of aminopeptidase A” value ([1]; at 100 μg/ml, aminopeptidase A of human serum) was 26.4% and the antibacterial activity (bacteria; at 100 μg/ml) was “no antibacterial”. The antibacterial activity (bacteria; no concentration given) was “substantially no antibacterial activity”, the “inhibition of bleomycin hydrolase” value (bleomycin hydrolase) was “strong inhibition” and the inhibition of thermolysin (thermolysin) was “did not show any inhibition”. For the same compound, the “increase of bleomycin activity in inhibiting Yoshida rat sarcoma cells” value [2] was 4- 8 times, the “inhibition of growth of mammalian cells” value [3] was “weak inhibition” and the “increase of bleomycin effect on squamous cell carcinoma” value [4] was 4 times. For the same compound, the antifungal activity (fungi) was “no antifungal”, the toxicity ([5]; intraperitoneal injection of 295 mg/kg, mouse) was “no toxicity” and the death ([5]; intraperitoneal injection of 300 mg/kg, mice) was “no death”. The “stability (activity after treatment)” value (Stability to pH and heat) was “No decrease of the activity”.
In the case of COC(=O)[C@H](CC(C)C)NC(=O)[C@@H](O)[C@H](N)Cc1ccccc1 [methyl ester of bestatin], the “50% inhibition dose (ID50)” value (aminopeptidase B) is reported as 8.4 µg.
